Target: T1, mTOR (UniProt P42346+P62942)
T1 construct: purchased Calbiochem CBA055
Test: mTOR Assay Screening Protocol (K-LISA mTOR Activity Kit, inhibitor with FKBP12)
Format: biochemical
Conditions: mTOR Standard pre-incubated with inhibitor and FKBP12 (35-37 ug/ml); p70S6K-T389 phosphorylation ELISA, absorbance at 450 nm
Description: mTOR Assay Screening Protocol
Kit: Calbiochem Cat. No. CBA055: K-LISA mTOR Activity Kit
The following table provides reagent preparation instructions to obtain the volume of Working Solutions (WS) required for 10 wells. Volumes can be scaled to process more samples and provide overage for pipetting error.
Reagent Volume (per 10-well strip) Composition: mTOR Substrate WS: 1 ml Dilution factor: 1:400 FKBP12: Sigma F5398 FK-Binding Protein human, recombinant, expressed in Escherichia coli
A. Protocol for mTOR Kinase Activity and Inhibitor Screening: 1. Remove the required number of strips from the Glutathione-Coated 96-Well Plate and place them in the 96-well frame. 2. Add 100 μl mTOR Substrate WS to each well and incubate for 1 h at room temperature. 3. When performing inhibitor screening/testing, pre-incubate 50 μl mTOR Standard (from step 2) with test inhibitor or wortmannin in a separate tube on ice for 20 min (for example 50 μl mTOR Standard with 1 μl Woltmannin, 50×). This pre-incubation can be carried out during the incubation in step 2. • For inhibitor testing: weigh out inhibitor and resuspend in DMSO to a concentration of 5 mM prior to addition to assay • Test concentrations for inhibitors in assay ranged from 10 uM-0.0048 uM (final concentrations) • Inhibitor reaction contained: mTOR Standard, inhibitor (at indicated concentration) and FKBP12 (at 35-37 ug/ml) • Dilutions of inhibitors made in TBS • Controls for assay include: mTOR Standard only, mTOR Substrate only (blank), FKBP12+mTOR Standard (no inhibitor), inhibitor compound+mTOR Standard (no FKBP12), 4. Aspirate contents of the wells and wash each well of the Glutathione-Coated 96-Well Plate with 200 μl TBS. Empty the contents of the wells into the sink and dry the wells by tapping the inverted plate on paper towels. Repeat for a total of 3 washes. 5. Add the following components to each well in the specified order: […]
mTOR Standard or mTOR Sample* (diluted to assay range with phosphate-free buffer or water): 50 μl 2× Kinase Assay Buffer WS: 50 μl
*Pre-incubated with inhibitor in step 3 or without inhibitor 6. Cover the plate with the Plate Sealer, mix with a plate shaker or equivalent for 30 seconds, and incubate for 30 minutes at 30° C. 7. Stop the kinase reaction by adding 10 μl Kinase Stop Solution to each well. (Reaction may also be stopped simply by discarding the contents of the wells). 8. Aspirate the contents of each well and wash with 200 μl Plate Wash (1×). Gently agitate the plate using a plate shaker or equivalent for 5 min. Empty the contents of the wells into the sink and dry the wells by tapping the inverted plate on paper towels. Wash the plate 2 more times without shaking the plate. 9. Add 100 μl Anti-p70S6K-T389 WS to each well, cover the plate with the Plate Sealer, and incubate 1 h at room temperature. 10. Wash the plate 4 times as outlined in step 8 without shaking the plate. 11. Add 100 μl HRP-Antibody Conjugate WS to each well, cover the plate with the Plate Sealer, and incubate 1 h at room temperature. 12. Wash the plate as outlined in step 10. 13. Add 100 μl TMB Substrate to each well, cover the plate with the Plate Sealer, and incubate 5-20 min at room temperature. 14. […] 15. Analyze data using Microsoft Excel and GraphPad Prism software.

T1 sequence (P62942 2-108 limits assumed, other chains not shown): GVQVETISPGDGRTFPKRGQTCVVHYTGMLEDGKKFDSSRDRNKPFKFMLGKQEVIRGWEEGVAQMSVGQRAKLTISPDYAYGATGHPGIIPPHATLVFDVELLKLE

Compound	IC50 [nM]
CO[C@H]1C[C@@H]2CC[C@@H](C)[C@@](O)(O2)C(=O)C(=O)N2CCCC[C@H]2C(=O)O[C@H]([C@H](C)C[C@@H]2CC[C@@H](OC[Si](C)(C)C)[C@H](OC)C2)CC(=O)[C@H](C)/C=C(\C)[C@@H](O)[C@@H](OC)C(=O)[C@H](C)C[C@H](C)/C=C/C=C/C=C/1C [Example 11, 42-O-[Trimethylsilyl-methyl]-rapamycin]	2300
CO[C@H]1C[C@@H]2CC[C@@H](C)[C@@](O)(O2)C(=O)C(=O)N2CCCC[C@H]2C(=O)O[C@H]([C@H](C)C[C@@H]2CC[C@@H](OC(=O)N3CCC(O)CC3)[C@H](OC)C2)CC(=O)[C@H](C)/C=C(\C)[C@@H](O)[C@@H](OC)C(=O)[C@H](C)C[C@H](C)/C=C/C=C/C=C/1C [Example 15]	210
CO[C@H]1C[C@@H]2CC[C@@H](C)[C@@](O)(O2)C(=O)C(=O)N2CCCC[C@H]2C(=O)O[C@H]([C@H](C)C[C@@H]2CC[C@@H](OC(=O)CN3CCC(O)CC3)[C@H](OC)C2)CC(=O)[C@H](C)/C=C(\C)[C@@H](O)[C@@H](OC)C(=O)[C@H](C)C[C@H](C)/C=C/C=C/C=C/1C [Example 8, 42-O-[2-(4-Hydroxypiperidin-1-yl)acetyl]-rapamycin]	70
CO[C@H]1C[C@@H]2CC[C@@H](C)[C@@](O)(O2)C(=O)C(=O)N2CCCC[C@H]2C(=O)O[C@H]([C@H](C)C[C@@H]2CC[C@@H](OC(=O)NS(=O)(=O)Nc3ccc(O)cc3)[C@H](OC)C2)CC(=O)[C@H](C)/C=C(\C)[C@@H](O)[C@@H](OC)C(=O)[C@H](C)C[C@H](C)/C=C/C=C/C=C/1C [Example 5, 42-O-[4-Hydroxyanilinsulfonylcarbamyl]-rapamycin]	1
CO[C@H]1C[C@@H]2CC[C@@H](C)[C@@](O)(O2)C(=O)C(=O)N2CCCC[C@H]2C(=O)O[C@H]([C@H](C)C[C@@H]2CC[C@@H](OC(=O)NCCN3CCOCC3)[C@H](OC)C2)CC(=O)[C@H](C)/C=C(\C)[C@@H](O)[C@@H](OC)C(=O)[C@H](C)C[C@H](C)/C=C/C=C/C=C/1C [Example 16, 42-O-(2-Morpholinoethylaminocarbonyl)-rapamycin]	300
CO[C@H]1C[C@@H]2CC[C@@H](C)[C@@](O)(O2)C(=O)C(=O)N2CCCC[C@H]2C(=O)O[C@H]([C@H](C)C[C@@H]2CC[C@@H](OC(=O)N3CCN(C)CC3)[C@H](OC)C2)CC(=O)[C@H](C)/C=C(\C)[C@@H](O)[C@@H](OC)C(=O)[C@H](C)C[C@H](C)/C=C/C=C/C=C/1C [Example 6, 42-O-[4-Methylpiperazine-1-carboxy]-rapamycin]	2500
CO[C@H]1C[C@@H]2CC[C@@H](C)[C@@](O)(O2)C(=O)C(=O)N2CCCC[C@H]2C(=O)O[C@H]([C@H](C)C[C@@H]2CC[C@@H](OC(=O)NS(=O)(=O)N(C)C)[C@H](OC)C2)CC(=O)[C@H](C)/C=C(\C)[C@@H](O)[C@@H](OC)C(=O)[C@H](C)C[C@H](C)/C=C/C=C/C=C/1C [Example 2, 42-O-[Dimethylaminosulfonylcarbamyl]-rapamycin]	30
CO[C@H]1C[C@@H]2CC[C@@H](C)[C@@](O)(O2)C(=O)C(=O)N2CCCC[C@H]2C(=O)O[C@H]([C@H](C)C[C@@H]2CC[C@@H](OC(=O)NS(=O)(=O)N(CCO)CCO)[C@H](OC)C2)CC(=O)[C@H](C)/C=C(\C)[C@@H](O)[C@@H](OC)C(=O)[C@H](C)C[C@H](C)/C=C/C=C/C=C/1C [Example 3, 42-O—[N,N-Bis(2-hydroxyethyl)aminosulfonylcarbamyl]-rapamycin]	110
CO[C@H]1C[C@@H]2CC[C@@H](C)[C@@](O)(O2)C(=O)C(=O)N2CCCC[C@H]2C(=O)O[C@H]([C@H](C)C[C@@H]2CC[C@@H](OC(=O)NS(=O)(=O)N3CC[C@@H](O)C3)[C@H](OC)C2)CC(=O)[C@H](C)/C=C(\C)[C@@H](O)[C@@H](OC)C(=O)[C@H](C)C[C@H](C)/C=C/C=C/C=C/1C [Example 4, 42-O—[(R)-3-hydroxypyrrolidin-1-ylsulfonylcarbamyl]-rapamyein]	10
CO[C@H]1C[C@@H]2CC[C@@H](C)[C@@](O)(O2)C(=O)C(=O)N2CCCC[C@H]2C(=O)O[C@H]([C@H](C)C[C@@H]2CC[C@@H](OCCOC[Si](C)(C)C)[C@H](OC)C2)CC(=O)[C@H](C)/C=C(\C)[C@@H](O)[C@@H](OC)C(=O)[C@H](C)C[C@H](C)/C=C/C=C/C=C/1C [Example 12, 42-O-[2-(Trimethylsilan-methoxy)-ethyl]-rapamycin]	30
CO[C@H]1C[C@@H]2CC[C@@H](C)[C@@](O)(O2)C(=O)C(=O)N2CCCC[C@H]2C(=O)O[C@H]([C@H](C)C[C@@H]2CC[C@@H](OC(=O)NS(=O)(=O)N3CCOCC3)[C@H](OC)C2)CC(=O)[C@H](C)/C=C(\C)[C@@H](O)[C@@H](OC)C(=O)[C@H](C)C[C@H](C)/C=C/C=C/C=C/1C [Example 1, 42-O-[Morpholinosulfonylcarbamyl]-rapamycin]	10
CO[C@H]1C[C@@H]2CC[C@@H](C)[C@@](O)(O2)C(=O)C(=O)N2CCCC[C@H]2C(=O)O[C@H]([C@H](C)C[C@@H]2CC[C@@H](OC(=O)CN3CCC(CCO)CC3)[C@H](OC)C2)CC(=O)[C@H](C)/C=C(\C)[C@@H](O)[C@@H](OC)C(=O)[C@H](C)C[C@H](C)/C=C/C=C/C=C/1C [Example 13, 42-O-[2-(4-(2-Hydroxyethyl)piperidin-1-yl)acetyl]rapamycin]	70
CO[C@H]1C[C@@H]2CC[C@@H](C)[C@@](O)(O2)C(=O)C(=O)N2CCCC[C@H]2C(=O)O[C@H]([C@H](C)C[C@@H]2CC[C@@H](OCCCS(=O)(=O)N3CCOCC3)[C@H](OC)C2)CC(=O)[C@H](C)/C=C(\C)[C@@H](O)[C@@H](OC)C(=O)[C@H](C)C[C@H](C)/C=C/C=C/C=C/1C [Example 17, 42-O-[3-(Morpholinosulfonyl)propyl]-rapamycin]	140
CO[C@H]1C[C@@H]2CC[C@@H](C)[C@@](O)(O2)C(=O)C(=O)N2CCCC[C@H]2C(=O)O[C@H]([C@H](C)C[C@@H]2CC[C@@H](OC(=O)CN(CCO)CCO)[C@H](OC)C2)CC(=O)[C@H](C)/C=C(\C)[C@@H](O)[C@@H](OC)C(=O)[C@H](C)C[C@H](C)/C=C/C=C/C=C/1C [Example 14, 42-O-[2-(Bis(2-hydroxyethyl)amino)acetyl]-rapamycin]	240
